Test results from PubChem BioAssay (NCI).
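Values below derive from 48-hour exposures of cells grown in 96-well plates, with endpoints linearly interpolated between the two concentrations bracketing the appropriate inhibition level. At the GI50, growth is halved. TGI: total growth inhibition.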

What was measured:
Assay in all cases: growth of human tumour cells (NCI), 48 h
HCC-2998 colon = test system: HCC-2998 colon
HCT-15 colon = test system: HCT-15 colon
SW-620 colon = test system: SW-620 colon
CAKI-1 renal = test system: CAKI-1 renal
OVCAR-5 ovarian = test system: OVCAR-5 ovarian
NCI/ADR-RES ovarian = test system: NCI/ADR-RES ovarian
NCI-H23 lung = test system: NCI-H23 lung
OVCAR-3 ovarian = test system: OVCAR-3 ovarian
SNB-19 CNS = test system: SNB-19 CNS
A549 NSCLC = test system: A549 NSCLC

| Structure (SMILES) | TGI (HCC-2998 colon) | TGI (HCT-15 colon) | TGI (SW-620 colon) | TGI (CAKI-1 renal) | TGI (OVCAR-5 ovarian) | TGI (NCI/ADR-RES ovarian) | TGI (NCI-H23 lung) | TGI (OVCAR-3 ovarian) | TGI (SNB-19 CNS) | TGI (A549 NSCLC) | GI50 (HCT-15 colon) | GI50 (CAKI-1 renal) | GI50 (SNB-19 CNS) | GI50 (NCI/ADR-RES ovarian) | GI50 (A549 NSCLC) | GI50 (NCI-H23 lung) | GI50 (OVCAR-3 ovarian) | GI50 (HCC-2998 colon) | GI50 (OVCAR-5 ovarian) | GI50 (SW-620 colon) |
| --- | --- | --- | --- | --- | --- | --- | --- | --- | --- | --- | --- | --- | --- | --- | --- | --- | --- | --- | --- | --- |
| N=c1c2c(=S)n(-c3ccccc3)c(=S)n(-c3ccccc3)c2nc(SCCCN2CCN(c3cccc(Cl)c3)CC2)n1-c1ccccc1 | > 100 µM | > 100 µM | > 100 µM | > 100 µM | > 100 µM | > 100 µM | > 100 µM | > 100 µM |  |  |  |  |  |  |  |  |  |  |  |  |
| COC(=O)c1cccc(N[C@@H]2c3cc4c(cc3C(c3cc(OC)c(O)c(OC)c3)[C@H]3C(=O)OCC32)OCO4)c1 (stereo partly drawn) | 8.09 µM | 4.54 µM | > 100 µM | 2.91 µM | > 100 µM | > 85.1 µM | 4.01 µM | 33.7 µM | > 63.4 µM | 3.25 µM |  |  |  |  |  |  |  |  |  |  |
| C=C1C(=O)OC2/C=C(/C)C3CC(O)C(C)(CC(OC(=O)/C(C)=C/C)C12)O3 (stereo not drawn) | 28.4 µM | 3.61 µM | 3.46 µM | 4.86 µM | 21.6 µM |  | 16.9 µM | 14.2 µM | 30.8 µM | 23.6 µM |  |  |  |  |  |  |  |  |  |  |
| O=C(O)CS | > 100 µM | > 100 µM | > 100 µM | > 100 µM | > 100 µM |  | > 100 µM |  | > 100 µM | > 100 µM |  |  |  |  |  |  |  |  |  |  |
| Nc1nc(Cl)cc(OCC2(CO)CC(OCc3ccccc3)C2)n1 (stereo not drawn) |  |  |  |  |  |  |  |  |  |  | 83.8 µM | 48.2 µM | 51.6 µM | 45.8 µM | 43 µM | 36.5 µM | 47.1 µM |  |  |  |
| COc1cc(/C=C/c2cc(/C=C/c3ccc(O)c(OC)c3)nc(N)n2)ccc1O | 3.19 µM | 10.3 µM |  | 6.46 µM | 4.33 µM | 18.8 µM |  | 8.62 µM | 7.95 µM | 6.04 µM | 2.82 µM | 2.23 µM | 1.81 µM | 2.88 µM | 2.22 µM |  | 2.65 µM | 1.75 µM | 2.03 µM |  |
| CC(=O)Oc1ccc2c(c1)oc1c3ccc(OC(C)=O)cc3n(C)c(=O)c21 | 57.1 µM | > 100 µM | > 100 µM |  | > 100 µM | 51.7 µM | > 100 µM | > 100 µM | > 100 µM | > 100 µM |  |  |  |  |  |  |  |  |  |  |
| C=C1C(=O)C[C@@]23CCC[C@@]12CC(OCOC)C3 (stereo partly drawn) | 12.3 µM | 3.08 µM | 3.97 µM | 6.94 µM | 8.26 µM | 9.5 µM | 11.1 µM | 6.48 µM | 28.7 µM | 28.4 µM |  |  |  |  |  |  |  |  |  |  |
| S=P1(N2CCCCC2)Oc2ccc3ccccc3c2-c2c(ccc3ccccc23)O1 | > 100 µM | > 100 µM | > 100 µM | > 100 µM | > 100 µM | > 100 µM | > 100 µM | > 88.3 µM | > 100 µM | > 100 µM |  |  |  |  |  |  |  |  |  |  |
| Cc1cc(C)c2c(c1)CC1(Cc3c(C)ccc(C)c3C1=O)C2=O (stereo not drawn) | > 100 µM | > 100 µM | > 100 µM | > 100 µM | > 100 µM | > 100 µM |  | > 100 µM | > 100 µM | > 100 µM |  |  |  |  |  |  |  |  |  |  |
| N=C(N)c1ccc(-c2ccc(-c3ccccc3)s2)cc1 |  |  |  | 2.92 µM | 2.94 µM |  | 4.53 µM |  |  | 4.73 µM |  | 1.58 µM |  |  | 2.14 µM | 2 µM |  |  | 1.59 µM |  |
| O=[N+]([O-])c1ccccc1NC1c2ccccc2Oc2ccccc21 | > 100 µM | > 100 µM | > 100 µM | > 100 µM |  | > 100 µM | > 100 µM | > 100 µM | > 100 µM | > 100 µM | 3.5 µM | 11 µM | 4.35 µM | 4.03 µM | 6.51 µM | 9.67 µM | 3.64 µM | 75.2 µM |  | 3.55 µM |
| O=C1C=CC2=[N+]([O-])C(c3ccccc3)(c3ccccc3)C(=Nc3ccccc3)C2=C1 | 19.6 µM | 6.34 µM | 3.65 µM | 6.33 µM | 30 µM |  | 5.64 µM | 3.37 µM | 31.6 µM | 29.4 µM |  |  |  |  |  |  |  |  |  |  |
| CCCCCCCC/C=C\CCCCCCCC(=O)O | > 500 µM | 338 µM | 355 µM | 206 µM | > 500 µM | 196 µM | 146 µM | > 232 µM | 252 µM | 226 µM |  |  |  |  |  |  |  |  |  |  |
| CN(C)Cc1cc(C(C)(C)C)ccc1-c1ccc(C(C)(C)C)cc1CN(C)C | 23.5 µM | > 100 µM | > 100 µM | > 100 µM | > 100 µM | > 100 µM | > 100 µM | > 100 µM | > 100 µM | > 100 µM |  |  |  |  |  |  |  |  |  |  |
| CCN(CC)CCCNc1ncc(C)c2[nH]c3ccncc3c12 | 23.6 µM | > 100 µM | 36.9 µM |  | 26.7 µM | > 100 µM | 34.6 µM | 56.3 µM | > 100 µM | 22.7 µM |  |  |  |  |  |  |  |  |  |  |
| CN1CCCCC(C#N)(c2ccccc2)CC1 (stereo not drawn) | > 100 µM | > 100 µM | > 100 µM | > 100 µM | > 100 µM | > 100 µM | > 100 µM |  | > 100 µM | > 100 µM |  |  |  |  |  |  |  |  |  |  |
| COC(C(=O)C(O)C(C)O)C1CC2C=C3C=C(OC4CC(OC5CC(O)C(OC)C(C)O5)C(OC(C)=O)C(C)O4)C(C)C(=O)C3=C(O)C2=C(O)C1OC1CC(OC2CC(OC3CC(C)(O)C(OC(=O)C(C)C)C(C)O3)C(O)C(C)O2)C(O)C(C)O1 (stereo not drawn) | < 0.01 µM |  |  | > 100 µM |  | 0.425 µM | < 0.01 µM |  |  |  |  |  |  |  |  |  |  |  |  |  |
